# Measurements: ChEMBL document CHEMBL3860047, “Modulating the strength of hydrogen bond acceptors to achieve low Caco2 efflux for oral bioavailability of PARP inhibitors blocking centrosome clustering” (Bioorg Med Chem Lett, 2016)
# Assay: Dissociation constant, pKa of the compound
# Assay type: physicochemical
row,pKa,SMILES
1,2.24,c1ccnnc1 [PYRIDAZINE]
2,9.6,NCc1ccccc1 [BENZYLAMINE]
3,1.54,C[S+](C)[O-] [DIMETHYL SULFOXIDE]
4,1.2,CN(C)C(=O)c1ccccc1
